Experimental data from ChEMBL document CHEMBL4229469, “Small molecule scaffolds that disrupt the Rev1-CT/RIR protein-protein interaction” (Bioorg Med Chem, 2018).
≈ marks a conversion by molar mass, not a printed value. Calls of active or inactive are those of the source. No cut-off for these calls is given here.

Columns and labels:
[1] = biological target: T1, DNA repair protein REV1 (Homo sapiens) (UniProt Q9UBZ9); assay: Displacement of FAM-labelled polkappa-RIR peptide from recombinant human C-terminal Rev1 (1158 to 1251 residues) expressed in Escherichia coli BL21(DE3) at 10 uM after 1 hr by fluorescence polarization assay relative to control
T1 sequence (whole entry): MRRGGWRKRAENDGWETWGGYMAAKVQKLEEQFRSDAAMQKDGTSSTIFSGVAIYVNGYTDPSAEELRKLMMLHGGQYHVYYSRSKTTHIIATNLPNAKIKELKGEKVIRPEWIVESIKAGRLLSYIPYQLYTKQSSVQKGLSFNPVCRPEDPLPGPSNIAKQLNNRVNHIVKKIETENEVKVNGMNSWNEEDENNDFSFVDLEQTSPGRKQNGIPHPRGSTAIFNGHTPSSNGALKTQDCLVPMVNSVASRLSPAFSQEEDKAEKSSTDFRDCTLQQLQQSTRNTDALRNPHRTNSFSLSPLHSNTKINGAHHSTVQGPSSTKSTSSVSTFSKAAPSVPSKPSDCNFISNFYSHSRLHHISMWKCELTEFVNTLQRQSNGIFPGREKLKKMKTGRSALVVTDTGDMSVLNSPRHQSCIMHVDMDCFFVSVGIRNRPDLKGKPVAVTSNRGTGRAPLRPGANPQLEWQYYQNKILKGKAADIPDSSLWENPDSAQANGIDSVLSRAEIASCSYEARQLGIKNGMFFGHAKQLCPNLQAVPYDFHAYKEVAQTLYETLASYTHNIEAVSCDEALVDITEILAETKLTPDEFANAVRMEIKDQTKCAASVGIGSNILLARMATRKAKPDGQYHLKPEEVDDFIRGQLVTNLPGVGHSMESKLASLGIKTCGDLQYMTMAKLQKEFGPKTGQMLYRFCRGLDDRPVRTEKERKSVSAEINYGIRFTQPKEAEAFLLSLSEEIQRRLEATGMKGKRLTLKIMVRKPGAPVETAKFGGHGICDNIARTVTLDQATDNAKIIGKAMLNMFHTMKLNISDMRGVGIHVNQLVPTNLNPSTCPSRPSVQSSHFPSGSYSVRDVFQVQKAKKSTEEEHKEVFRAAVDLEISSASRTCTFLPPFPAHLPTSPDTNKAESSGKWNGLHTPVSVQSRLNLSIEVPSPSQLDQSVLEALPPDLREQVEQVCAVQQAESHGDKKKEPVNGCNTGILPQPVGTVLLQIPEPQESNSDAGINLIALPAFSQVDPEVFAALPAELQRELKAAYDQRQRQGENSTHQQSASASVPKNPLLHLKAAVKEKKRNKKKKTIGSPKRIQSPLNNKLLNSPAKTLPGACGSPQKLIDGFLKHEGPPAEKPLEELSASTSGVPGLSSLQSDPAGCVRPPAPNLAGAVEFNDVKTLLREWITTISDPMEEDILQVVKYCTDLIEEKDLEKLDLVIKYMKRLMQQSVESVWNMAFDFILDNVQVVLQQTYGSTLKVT

DNA repair protein REV1 = biological target: T2, DNA repair protein REV1 (Homo sapiens, UniProt Q9UBZ9); assay: Displacement of FAM-labelled polkappa-RIR peptide from recombinant human C-terminal Rev1 (1158 to 1251 residues) expressed in Escherichia coli BL21(DE3) after 1 hr by fluorescence polarization assay
T2 sequence (Q9UBZ9 whole entry): T1 sequence (whole entry)

[2] = Growth inhibition of cisplatin-resistant human U2OS cells after 72 hrs by MTS assay; assay type: cell-based
U2OS [3] = assay: Potentiation of cisplatin-induced cytotoxicity in cisplatin-resistant human U2OS cells assessed as cisplatin GI50 at 50 uM after 72 hrs by MTS assay (reference value: 23.9 +/- 1.9 uM); assay type: functional
U2OS [4] = assay: Potentiation of cisplatin-induced cytotoxicity in cisplatin-resistant human U2OS cells assessed as cisplatin GI50 at 25 uM after 72 hrs by MTS assay (reference value: 23.9 +/- 1.9 uM); assay type: functional
U2OS [5] = assay: Potentiation of cisplatin-induced cytotoxicity in cisplatin-resistant human U2OS cells assessed as increase in cisplatin-induced reduction in colony survival at 20 uM treated for 24 hrs measured after 7 days by Coomassie Brilliant Blue R-250 staining based assay; assay type: functional, cell-based
[6] = Solubility of the compound in pH 7.4 phosphate buffered saline
[7] = Solubility of the compound in pH 4 phosphate buffered saline
[8] = Permeability of the compound by PAMPA; assay type: ADME
[9] = Stability of the compound in pH 7.4 phosphate buffered saline assessed as parent compound remaining at 5 uM; assay type: physicochemical; conditions: read-out: Stability
[10] = Intrinsic clearance in human liver microsomes at 1 uM; assay type: ADME, microsome
[11] = Ratio of solubility in pH 7.4 phosphate buffered saline to pH 4 phosphate buffered saline; assay type: physicochemical; conditions: buffer
[12] = Drug metabolism in human liver microsomes assessed as oxidation at 10 uM after 30 to 60 mins by LC-MS/MS analysis; assay type: ADME, microsome
[13] = Drug metabolism in human liver microsomes assessed as oxidation and dehydrogenation at 10 uM after 30 to 60 mins by LC-MS/MS analysis; assay type: ADME, microsome
[14] = Drug metabolism in human liver microsomes assessed as dehydrogenation at 10 uM after 30 to 60 mins by LC-MS/MS analysis; assay type: ADME, microsome
[15] = Drug metabolism in human liver microsomes assessed as demethylation by measuring 2-(1-acetylpiperidine-4-carboxamido)-5-propylthiophene-3-carboxylic acid formation at 10 uM after 30 to 60 mins by LC-MS/MS analysis; assay type: ADME, microsome
[16] = Drug metabolism in human liver microsomes assessed as hydrolysis by measuring methyl 2-(piperidine-4-carboxamido)-5-propylthiophene-3-carboxylate formation at 10 uM after 30 to 60 mins by LC-MS/MS analysis; assay type: ADME, microsome
[17] = Retention time of the compound in human liver microsomes at 10 uM by LC-MS/MS analysis; assay type: ADME, microsome
U2OS [18] = assay: Potentiation of cisplatin-induced cytotoxicity in cisplatin-resistant human U2OS cells assessed as cisplatin GI50 at 10 uM after 72 hrs by MTS assay (reference value: 23.9 +/- 1.9 uM); assay type: functional

| SMILES | inhibition [1] | IC50 (DNA repair protein REV1) | Kd (DNA repair protein REV1) | Ki (DNA repair protein REV1) | GI50 at 72 h [2] | GI50 (U2OS [3]) | other results |
| --- | --- | --- | --- | --- | --- | --- | --- |
| CC(=O)N1CCC(C(=O)Nc2sc3c(c2C(=O)NC2CC2)CCC(C)C3)CC1 (stereo not drawn) | > 85% | 2.5 µM | 4.4 µM | 4.6 µM | > 100 µM | 15.3 µM | GI50 (U2OS [4]): 24.4 µM; Activity (U2OS [5]): inactive |
| O=C(CN1CCN(c2ccc(F)cc2)CC1)Nc1ccccc1 | > 85% | 28 µM | 42.2 µM | 46.6 µM | – | – | – |
| COc1ccc(OC)c(-c2csc(N3CCN(C(=O)c4ccco4)CC3)n2)c1 | > 85% | 6.2 µM | 3.7 µM | 4.8 µM | > 100 µM | 11.8 µM | GI50 (U2OS [4]): 11.9 µM |
| CCc1ccc(NC(=O)CN2CCN(c3ccccc3)CC2)cc1 | > 85% | > 50 µM | 49.5 µM | – | – | – | – |
| CCn1c2ccccc2c2cc(NC(=O)N3CCC(C(C)=O)CC3)ccc21 | > 85% | 4.6 µM | 6.9 µM | 8.9 µM | – | – | – |
| CCCc1cc(C(=O)OC)c(NC(=O)C2CCN(C(C)=O)CC2)s1 | > 85% | 4.1 µM | 3.5 µM | 3.6 µM | > 100 µM | 19.6 µM | GI50 (U2OS [4]): 12.6 µM; solubility [6]: 63.3 µM (≈ 22.3 µg/mL); solubility [7]: 21.1 µM (≈ 7.44 µg/mL); log(permeability) [8]: -4.5; remaining at 5 µM [9]: 95%; CLH [10]: 18.8 µL/min/mg; Ratio [11]: 3; Drug metabolism [12]: Metabolite_Detected; Drug metabolism [13]: Metabolite_Detected; Drug metabolism [14]: Metabolite_Detected; Drug metabolism [15]: Metabolite_Detected; Drug metabolism [16]: Metabolite_Detected |
| N#Cc1ccc(NC(=O)CN2CCN(c3ccc(F)cc3)CC2)cc1 | > 85% | > 50 µM | 109 µM | – | – | – | – |
| CCCc1cc(C(=O)O)c(NC(=O)C2CCN(C(C)=O)CC2)s1 | – | – | – | – | – | – | Retention_time [17]: 3.8 min |
| CCCc1cc(C(=O)OCC)c(NC(=O)C2CCN(C(C)=O)CC2)s1 | > 85% | 5.9 µM | 7.8 µM | 11.6 µM | – | – | – |
| Cc1ccc(C(=O)N2CCN(c3ccccc3)CC2)cc1S(=O)(=O)N1CCOCC1 | > 85% | 3.5 µM | 2.9 µM | 3 µM | > 100 µM | 28.2 µM | – |
| CC(=O)N1CCC(C(=O)Nc2sc3c(c2C(N)=O)CCC(C)C3)CC1 (stereo not drawn) | > 85% | 13.2 µM | 12.6 µM | 15.7 µM | – | – | – |
| CCCc1cc(C(=O)OC)c(NC(=O)C2CCNCC2)s1 | – | – | – | – | – | – | Retention_time [17]: 10.58 min |
| CC(=O)N1CCC(C(=O)Nc2sc3c(c2C(=O)NC2CC2)CCCC3)CC1 | > 85% | 21.5 µM | 26.6 µM | 31.5 µM | – | – | – |
| CC(=O)C(C)n1c(CN2CCN(c3cccc(Cl)c3)CC2)nc2c1c(=O)n(C)c(=O)n2C (stereo not drawn) | > 85% | 2.5 µM | 2.1 µM | 2 µM | > 100 µM | 7.8 µM | GI50 (U2OS [4]): 12.3 µM; GI50 (U2OS [18]): 19.3 µM |
| CCCCc1ccc(-n2nnc(C(=O)N(C)C3CCS(=O)(=O)C3)c2C)cc1 (stereo not drawn) | > 85% | 5.9 µM | 3.6 µM | 4.9 µM | > 100 µM | 20.1 µM | GI50 (U2OS [4]): 25.7 µM |
| COc1cc2c(cc1OC)CN(Cc1ccc(OCc3ccccc3)cc1)CC2 | > 85% | 11.9 µM | 12.6 µM | 14.5 µM | > 100 µM | 10.1 µM | GI50 (U2OS [4]): 13.4 µM; GI50 (U2OS [18]): 16.5 µM; Activity (U2OS [5]): Active |
| CCc1ccc(NC(=O)CN2CCN(c3ccc(F)cc3)CC2)cc1 | > 85% | 2.5 µM | 6.5 µM | 6.9 µM | – | – | – |
| COC(=O)c1cc(C)sc1NC(=O)C1CCN(C(C)=O)CC1 | > 85% | 9.4 µM | 8.2 µM | 7.4 µM | – | – | – |

Further lines, with some results ahead:

| inhibition [1] | IC50 (DNA repair protein REV1) | Kd (DNA repair protein REV1) | Ki (DNA repair protein REV1) | SMILES | GI50 at 72 h [2] | GI50 (U2OS [3]) | other results |
| --- | --- | --- | --- | --- | --- | --- | --- |
| > 85% | 12.3 µM | 18.2 µM | 19 µM | CC(C)(C)C(=O)N1CCN(c2ccc(NC(=O)c3cccnc3)cc2Cl)CC1 | > 100 µM | 25.9 µM | – |
| > 85% | 4.6 µM | 4.3 µM | 4.7 µM | CCS(=O)(=O)N(C)c1ccc(C(=O)N2CCN(c3ccccc3OC)CC2)cc1 | > 100 µM | 11.9 µM | GI50 (U2OS [4]): 13.3 µM |
| > 85% | 12.4 µM | 23.7 µM | 28.8 µM | CCc1cc(C(=O)OC)c(NC(=O)C2CCN(C(C)=O)CC2)s1 | – | – | – |
| > 85% | 5.5 µM | 3.6 µM | 3.6 µM | CCc1ccc(NC(=O)CN2CCN(c3ccc(OC)cc3)CC2)cc1 | – | – | – |
| > 85% | 21.1 µM | 12.4 µM | 14.8 µM | Cc1cccc(N2CCN(CC(=O)Nc3ccc(F)cc3)CC2)c1C | – | – | – |
| > 85% | 4.9 µM | 9.5 µM | 11.9 µM | CCCC1CCc2c(sc(NC(=O)C3CCN(C(C)=O)CC3)c2C(N)=O)C1 (stereo not drawn) | – | – | – |
